According to patent publication US12508280B2, “Formulations for improving gut health” (DSM IP ASSETS B.V., priority 2018, dated 2025):

Columns and labels:
[1] = tested on: Co-cultures of Caco-2 and HT29-MTX-E12 cells; assay: Barrier integrity, leaky gut model, apical stressor Rhamnolipids; type: cell-based; details: vs corresponding control; for Lucifer yellow, apical induction of leaky gut cellular model: 48 h fermentation samples; for TEER, apical induction of leaky gut cellular model: 48 h minus 0 h fermentation samples
Experimental: (§1) Since ethanol is known to have antimicrobial effects, two blanks for each type of stock solution were included. As a source of the microbial community, a freshly prepared fecal suspension from the selected donor was added to the reactors. […] All tests, except the blanks, were performed in single repetition, resulting in 40 independent incubations, as specified in Table 1. Incubation conditions of the pre-screening experiment and the final experiment were 48 h at 37° C., under shaking (90 rpm) and anaerobic conditions. […] Effluent samples were collected from each fermentation flask before (0 h fermentation) and after fermentation (48 h fermentation), sterilized by filtering through 0.22 μm filters and used for short chain fatty acids (SCFA), quantification of immunological biomarkers and in vitro analysis in cell culture systems.
(§2) Co-cultures of Caco-2 and HT29-MTX-E12 cells were used to assess the protective effect of the supernatants before (0 h) and after fermentation (48 h) for both sets of in vitro experiments above.
(§3) CaCo-2 ECACC 86010202 and HT29-MTX-E12 ECACC 12040401 cells (both from European Collection of Cell Cultures, Salisbury, UK) were both cultured at 37° C., in atmosphere of 5% CO2 in DMEM medium supplemented with 4.5 g/L D-Glucose, 4 mM L-Glutamine, 1 mM Sodium Pyruvate, 1% MEM Non-Essential Amino Acids, 50 μg/mL Gentamicin (Life Technologies Europe B.V., Zug, Switzerland) and 10% heat-inactivated FBS (Sigma-Aldrich, Buchs, Switzerland). Sub-confluent cells were trypsinized using 0.25% Trypsin/EDTA (Life Technologies Europe B.V., Zug, Switzerland) and passaged at a ratio of 1:5-1:10 twice a week. Cells between passages 55 and 85 were used for this study.
(§4) Cells were seeded at a density of 20000 cells/well in a 7:3 ratio (Caco-2:HT29-MTX-E12) in Corning HTS Transwell-24 system PET membranes, 0.4 μM pore size, cell growth area 0.33 cm2/well (Corning BV, Amsterdam, Netherlands) and cultured as described above. Media was changed every second to third day.
For both sets of in vitro experiments, the integrity of cell monolayers after the stressor test was evaluated by both TEER values and by measuring the transport of Lucifer yellow from apical to basolateral compartments (Leaky gut model). A prewarmed HBSS transport buffer composed of Hank's Balanced Salt Solution pH 7.4 with Ca2+ and Mg2+, containing 5.5 mM D-(+)-glucose, Sodium Bicarbonate, and supplemented with 4 mM L-glutamine, 20 mM HEPES (Life Technologies Europe B.V., Zug, Switzerland) was used for all permeability experiments. The inserts were rinsed twice with HBSS using a reservoir tray, 100 μl HBSS were then added to the apical site of the inserts and subsequently moved to new wells with fresh HBSS and allowed to equilibrate at 37° C. for 60 min in the incubator followed by TEER measurement to obtain baseline resistance readings.
Lucifer Yellow CH dilithium salt (Sigma-Aldrich, Buchs, Switzerland) was dissolved in HBSS at a final concentration of 100 μg/ml. Basolateral stressor EtOH (Merck, KgaA, Darmstadt, Germany) was diluted to 5% in HBSS. Apical Stressor Rhamnolipids R90 (AGAE Technologies, Corvallis, USA) was dissolved in HBSS containing Lucifer Yellow at a final concentration of 350 μg/ml. All solutions were prepared freshly each time.
The HBSS transport buffer from the basolateral chamber was aspirated first, then the HBSS from the apical chamber and replaced with Lucifer yellow solution. For the apical stressor test, Lucifer yellow solution containing 350 μg/ml Rhamnolipids or Lucifer yellow solution without stressor for the control wells was loaded into the apical compartment, blank HBSS was subsequently added to the basolateral chamber.

[2] = tested on: Co-cultures of Caco-2 and HT29-MTX-E12 cells; assay: Barrier integrity, leaky gut model, basolateral stressor 5% EtOH; type: cell-based; details: 0.2× dose, vs corresponding control; for Lucifer yellow, basolateral induction of leaky gut cellular model: 48 h fermentation samples; for TEER, basolateral induction of leaky gut cellular model: 48 h minus 0 h fermentation samples
Experimental: as §1, §2, §3, §4
For both sets of in vitro experiments, the integrity of cell monolayers after the stressor test was evaluated by both TEER values and by measuring the transport of Lucifer yellow from apical to basolateral compartments (Leaky gut model). […] The inserts were rinsed twice with HBSS using a reservoir tray, 100 μl HBSS were then added to the apical site of the inserts and subsequently moved to new wells with fresh HBSS and allowed to equilibrate at 37° C. for 60 min in the incubator followed by TEER measurement to obtain baseline resistance readings. […]

HT29 cells = assay: HT29 cell culture, quantification of immunological biomarkers; type: cell-based; details: effluent from 24 h fermentation, vs corresponding control
[3] = tested on: fecal suspension from the selected donor; assay: Intestinal batch fermentation, SCFA production (first set); type: cell-based, human; details: after 48 h fermentation, vs corresponding control
Summary of the method: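 Test ingredients were added to modified nutritional medium inoculated with fresh donor fecal suspension. Incubation ran 48 h at 37° C, 90 rpm, anaerobic, with ethanol blanks and single repeats. SCFA were sampled at 0, 6, 24 and 48 h, diethyl ether-extracted and quantified by GC-FID against a 2-methyl hexanoic acid internal standard; molar sums were taken as unbranched, branched and total SCFA.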

## Cc1cc2nc3c(=O)[nH]c(=O)nc-3n(C[C@H](O)[C@H](O)[C@H](O)CO)c2cc1C [Vitamin B2, riboflavin]
[1]; 0.2× dose
  Lucifer yellow, apical induction of leaky gut cellular model: decrease Lucifer yellow
  TEER, apical induction of leaky gut cellular model: increase TEER
[2]
  Lucifer yellow, basolateral induction of leaky gut cellular model: decrease Lucifer yellow
  TEER, basolateral induction of leaky gut cellular model: increase TEER
HT29 cells; 1× dose
  GROa-CXCL1 production by HT29 cells: increase GROa-CXCL1 production
  IL-8 production by HT29 cells: increase IL-8 production
HT29 cells; 5× dose
  GROa-CXCL1 production by HT29 cells: increase GROa-CXCL1 production
  IL-8 production by HT29 cells: increase IL-8 production
[3]; 5× dose
  butyrate production: increase butyrate production

## Vitamin E
[1]; 0.2× dose
  TEER, apical induction of leaky gut cellular model: increase TEER
[1]; 1× dose
  Lucifer yellow, apical induction of leaky gut cellular model: decrease Lucifer yellow
  TEER, apical induction of leaky gut cellular model: increase TEER
[1]; 5× dose
  Lucifer yellow, apical induction of leaky gut cellular model: decrease Lucifer yellow
  TEER, apical induction of leaky gut cellular model: increase TEER
[2]
  Lucifer yellow, basolateral induction of leaky gut cellular model: decrease Lucifer yellow
  TEER, basolateral induction of leaky gut cellular model: increase TEER
HT29 cells; 0.2× dose
  IL-8 production by HT29 cells: increase IL-8 production
  MIP3A-CCL20 production by HT29 cells: increase MIP3A-CCL20 production
HT29 cells; 1× dose
  IL-8 production by HT29 cells: increase IL-8 production
  MIP3A-CCL20 production by HT29 cells: increase MIP3A-CCL20 production
HT29 cells; 5× dose
  GROa-CXCL1 production by HT29 cells: increase GROa-CXCL1 production
  IL-8 production by HT29 cells: increase IL-8 production
  MIP3A-CCL20 production by HT29 cells: increase MIP3A-CCL20 production
[3]; 1× dose
  acetate production: increase acetate production
  propionate production: increase propionate production
  total SCFAs production: increase total SCFAs production
[3]; 5× dose
  acetate production: increase acetate production
